# From patent publication US9340590B2 (priority 2011, dated 2016)
# Read-outs that look alike come from different tables or passages of the source. Positions of bridges follow the written chain, without caps; N, C: chain ends. Non-standard residues stand in square brackets, D forms with d. Residues, ends and D or L forms follow the SMILES beside them. Aib = CC(C)(N)C(=O)O
# Tests used:
# Test in all cases: cell-based
# hNav1.3 = hNav1.3 (Homo sapiens, UniProt Q9NY46); conditions: IonWorks Quattro, read-out: IWQ Use Nav1.3
# hNav1.7 = hNav1.7 (Homo sapiens, UniProt Q15858); assay type: cell-based; conditions: IonWorks Quattro, read-out: IWQ Use Nav1.7
# hNav1.5 = hNav1.5 (Homo sapiens, UniProt Q14524); conditions: IonWorks Quattro, read-out: IWQ Use Nav1.5
# [1] = use-dependent protocol, hNav1.3
# [2] = use-dependent protocol, hNav1.7
# [3] = use-dependent protocol, hNav1.5
# Sequence of hNav1.3 (Q9NY46 whole entry, looked up): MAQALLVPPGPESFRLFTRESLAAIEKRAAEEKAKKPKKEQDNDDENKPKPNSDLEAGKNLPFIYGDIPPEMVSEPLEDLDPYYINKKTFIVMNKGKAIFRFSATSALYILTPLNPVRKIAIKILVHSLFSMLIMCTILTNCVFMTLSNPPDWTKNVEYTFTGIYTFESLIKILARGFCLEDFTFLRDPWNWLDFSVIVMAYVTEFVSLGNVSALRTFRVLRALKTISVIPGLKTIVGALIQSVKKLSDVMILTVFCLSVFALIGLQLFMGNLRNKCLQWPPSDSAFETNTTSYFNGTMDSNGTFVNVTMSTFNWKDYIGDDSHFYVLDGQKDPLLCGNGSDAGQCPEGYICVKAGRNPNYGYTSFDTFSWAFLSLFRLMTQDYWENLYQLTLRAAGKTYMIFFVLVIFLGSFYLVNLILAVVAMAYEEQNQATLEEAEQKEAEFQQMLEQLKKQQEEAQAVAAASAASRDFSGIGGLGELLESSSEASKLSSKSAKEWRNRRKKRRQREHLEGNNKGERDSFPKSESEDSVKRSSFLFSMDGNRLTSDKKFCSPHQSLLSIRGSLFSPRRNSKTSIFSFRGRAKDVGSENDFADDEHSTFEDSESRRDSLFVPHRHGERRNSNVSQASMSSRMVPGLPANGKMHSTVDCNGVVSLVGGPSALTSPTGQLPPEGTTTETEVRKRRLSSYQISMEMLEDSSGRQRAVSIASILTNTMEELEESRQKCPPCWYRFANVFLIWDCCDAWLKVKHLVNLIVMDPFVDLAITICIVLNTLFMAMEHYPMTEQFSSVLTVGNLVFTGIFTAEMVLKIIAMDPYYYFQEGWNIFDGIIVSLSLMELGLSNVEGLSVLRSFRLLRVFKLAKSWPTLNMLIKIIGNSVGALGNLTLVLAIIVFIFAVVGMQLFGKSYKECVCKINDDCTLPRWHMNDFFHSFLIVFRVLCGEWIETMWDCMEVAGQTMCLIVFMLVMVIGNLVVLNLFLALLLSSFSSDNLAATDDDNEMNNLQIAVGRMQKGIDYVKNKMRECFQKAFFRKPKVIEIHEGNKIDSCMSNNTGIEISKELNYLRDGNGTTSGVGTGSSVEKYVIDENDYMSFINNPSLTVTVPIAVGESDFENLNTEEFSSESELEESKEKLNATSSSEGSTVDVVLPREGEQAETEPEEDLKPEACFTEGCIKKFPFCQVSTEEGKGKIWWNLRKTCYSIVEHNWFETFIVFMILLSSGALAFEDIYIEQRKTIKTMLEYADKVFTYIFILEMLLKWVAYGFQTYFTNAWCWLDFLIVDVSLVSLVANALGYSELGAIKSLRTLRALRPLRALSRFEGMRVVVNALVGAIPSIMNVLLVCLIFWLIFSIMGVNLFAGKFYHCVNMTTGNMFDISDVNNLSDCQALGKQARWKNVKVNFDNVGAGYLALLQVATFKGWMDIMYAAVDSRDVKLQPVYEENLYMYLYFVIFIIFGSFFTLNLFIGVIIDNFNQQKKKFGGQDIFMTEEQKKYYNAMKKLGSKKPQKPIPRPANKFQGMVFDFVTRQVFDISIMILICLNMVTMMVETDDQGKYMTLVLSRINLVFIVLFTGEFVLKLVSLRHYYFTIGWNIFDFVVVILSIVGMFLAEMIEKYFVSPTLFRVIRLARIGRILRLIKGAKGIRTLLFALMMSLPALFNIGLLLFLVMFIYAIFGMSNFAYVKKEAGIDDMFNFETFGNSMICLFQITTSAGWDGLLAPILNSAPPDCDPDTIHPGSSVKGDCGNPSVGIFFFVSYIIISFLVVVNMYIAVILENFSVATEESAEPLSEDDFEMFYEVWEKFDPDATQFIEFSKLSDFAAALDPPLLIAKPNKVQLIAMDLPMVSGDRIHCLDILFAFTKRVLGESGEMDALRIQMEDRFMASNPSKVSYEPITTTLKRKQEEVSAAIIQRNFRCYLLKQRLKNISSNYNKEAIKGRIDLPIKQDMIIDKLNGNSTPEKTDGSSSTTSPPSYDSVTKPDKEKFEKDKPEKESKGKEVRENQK
# Sequence of hNav1.7 (Q15858 whole entry, looked up): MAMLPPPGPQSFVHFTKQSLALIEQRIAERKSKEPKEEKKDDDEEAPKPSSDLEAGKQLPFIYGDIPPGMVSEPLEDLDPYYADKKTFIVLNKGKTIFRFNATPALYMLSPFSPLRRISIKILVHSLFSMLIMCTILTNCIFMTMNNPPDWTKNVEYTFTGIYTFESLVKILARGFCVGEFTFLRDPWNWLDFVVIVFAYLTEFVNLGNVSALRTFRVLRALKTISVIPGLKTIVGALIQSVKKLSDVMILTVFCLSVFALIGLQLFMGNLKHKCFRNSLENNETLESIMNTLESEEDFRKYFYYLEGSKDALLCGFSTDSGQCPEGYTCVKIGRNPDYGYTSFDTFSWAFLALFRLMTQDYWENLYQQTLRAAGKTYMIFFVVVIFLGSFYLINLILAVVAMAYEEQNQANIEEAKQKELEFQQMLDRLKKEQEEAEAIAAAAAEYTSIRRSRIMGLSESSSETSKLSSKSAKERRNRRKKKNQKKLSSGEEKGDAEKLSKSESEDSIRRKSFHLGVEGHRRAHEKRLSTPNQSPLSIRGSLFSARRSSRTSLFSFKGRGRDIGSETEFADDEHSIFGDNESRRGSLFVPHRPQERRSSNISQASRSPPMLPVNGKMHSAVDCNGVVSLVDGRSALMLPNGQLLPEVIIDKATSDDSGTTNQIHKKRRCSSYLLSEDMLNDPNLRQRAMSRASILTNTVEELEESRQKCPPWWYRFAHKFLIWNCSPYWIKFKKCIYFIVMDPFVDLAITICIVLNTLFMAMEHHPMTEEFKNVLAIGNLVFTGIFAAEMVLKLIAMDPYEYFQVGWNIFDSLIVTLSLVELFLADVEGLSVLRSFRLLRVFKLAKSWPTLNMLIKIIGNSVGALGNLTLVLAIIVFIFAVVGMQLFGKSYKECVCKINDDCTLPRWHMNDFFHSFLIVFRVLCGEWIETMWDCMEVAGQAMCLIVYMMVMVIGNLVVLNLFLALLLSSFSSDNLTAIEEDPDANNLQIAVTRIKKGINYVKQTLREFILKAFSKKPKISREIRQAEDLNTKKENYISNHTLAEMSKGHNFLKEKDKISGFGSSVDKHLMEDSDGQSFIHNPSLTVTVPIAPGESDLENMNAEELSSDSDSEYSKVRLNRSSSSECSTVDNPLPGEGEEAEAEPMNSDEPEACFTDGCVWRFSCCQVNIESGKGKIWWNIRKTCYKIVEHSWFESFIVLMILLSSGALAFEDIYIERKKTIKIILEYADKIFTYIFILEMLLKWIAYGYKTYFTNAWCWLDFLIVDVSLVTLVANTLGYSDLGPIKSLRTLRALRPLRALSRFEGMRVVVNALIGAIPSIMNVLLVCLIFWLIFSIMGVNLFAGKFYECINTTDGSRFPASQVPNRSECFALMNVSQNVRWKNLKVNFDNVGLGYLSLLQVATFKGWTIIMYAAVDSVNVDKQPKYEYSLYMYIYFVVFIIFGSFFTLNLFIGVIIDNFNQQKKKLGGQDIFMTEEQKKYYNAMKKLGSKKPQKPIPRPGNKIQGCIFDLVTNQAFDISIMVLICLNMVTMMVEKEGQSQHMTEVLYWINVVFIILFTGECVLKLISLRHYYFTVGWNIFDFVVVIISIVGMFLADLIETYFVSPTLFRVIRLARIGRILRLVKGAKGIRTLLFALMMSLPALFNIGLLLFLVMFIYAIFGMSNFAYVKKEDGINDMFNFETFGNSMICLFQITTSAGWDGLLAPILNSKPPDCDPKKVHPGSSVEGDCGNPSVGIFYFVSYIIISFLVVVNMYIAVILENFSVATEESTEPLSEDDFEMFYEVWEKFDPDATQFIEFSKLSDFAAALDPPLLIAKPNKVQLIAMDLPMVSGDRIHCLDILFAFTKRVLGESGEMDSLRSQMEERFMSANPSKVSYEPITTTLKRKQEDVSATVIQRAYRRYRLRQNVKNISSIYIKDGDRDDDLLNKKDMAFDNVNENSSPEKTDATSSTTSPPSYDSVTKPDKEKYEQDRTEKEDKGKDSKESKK
structure (smiles),measurement,setting,value
CC[C@H](C)[C@@H]1NC(=O)[C@@H]2CSSC[C@@H]3NC(=O)[C@H](C(C)C)NC(=O)[C@H](CC(C)C)NC(=O)[C@H](CC(N)=O)NC(=O)[C@@H]4CCCN4C(=O)[C@H](CCCNC(=N)N)NC(=O)[C@H](CSSC[C@H](NC(=O)[C@@H](N)CC(=O)O)C(=O)N[C@@H](CC(C)C)C(=O)NCC(=O)N[C@@H](C4CCCCC4)C(=O)N[C@@H](CC(C)C)C(=O)N[C@@H](CCCNC(=N)N)C(=O)N[C@@H](CCCCN)C(=O)N2)NC(=O)[C@H](CSSC[C@@H](C(=O)N[C@@H](CCCCN)C(=O)N[C@@H](Cc2ccc(O)cc2)C(=O)N[C@H](C(=O)N[C@@H](Cc2ccccc2)C(N)=O)C(C)C)NC(=O)[C@H](Cc2c[nH]c4ccccc24)NC(=O)[C@H](CCCCN)NC(=O)[C@H](Cc2c[nH]cn2)NC(=O)[C@H]([C@@H](C)O)NC(=O)[C@H](CCCNC(=N)N)NC(=O)[C@H](CO)NC3=O)NC(=O)[C@H](CCCCN)NC(=O)[C@H](CC(=O)O)NC(=O)[C@H](CC(N)=O)NC(=O)[C@H](CC(=O)O)NC(=O)[C@@H]2CCCN2C1=O [compound 664],IC50,hNav1.3; [1],110 nM
same,IC50,hNav1.7; [2],19 nM
same,IC50,hNav1.5; [3],> 5000 nM
CC[C@H](C)[C@@H]1NC(=O)[C@@H]2CSSC[C@@H]3NC(=O)[C@H](C(C)C)NC(=O)[C@H](CC(C)C)NC(=O)[C@H](CC(N)=O)NC(=O)[C@@H]4CCCN4C(=O)[C@H](CCCNC(=N)N)NC(=O)[C@H](CSSC[C@H](NC(=O)[C@@H](N)CC(=O)O)C(=O)N[C@@H](CC(C)C)C(=O)NCC(=O)N[C@@H](C)C(=O)N[C@@H](CC(C)C)C(=O)N[C@@H](CCCNC(=N)N)C(=O)N[C@@H](CCCCN)C(=O)N2)NC(=O)[C@H](CSSC[C@@H](C(=O)N[C@@H](CCCCN)C(=O)N[C@@H](Cc2ccc(O)cc2)C(=O)N[C@H](C(=O)N[C@@H](Cc2ccccc2)C(N)=O)C(C)C)NC(=O)[C@H](Cc2c[nH]c4ccccc24)NC(=O)[C@H](CCCCN)NC(=O)[C@H](Cc2c[nH]cn2)NC(=O)[C@H]([C@@H](C)O)NC(=O)[C@H](CCCNC(=N)N)NC(=O)[C@H](CO)NC3=O)NC(=O)[C@H](CCCCN)NC(=O)[C@H](CC(=O)O)NC(=O)[C@H](CC(N)=O)NC(=O)[C@H](CCC(=O)O)NC(=O)[C@@H]2CCCN2C1=O [compound 726],IC50,"hNav1.3; use-dependent block, hNav1.3",580 nM
same,IC50,"hNav1.7; use-dependent block, hNav1.7",350 nM
same,IC50,"hNav1.5; use-dependent block, hNav1.5",> 50000 nM
CC[C@H](C)[C@@H]1NC(=O)[C@@H]2CSSC[C@@H]3NC(=O)[C@H](C(C)C)NC(=O)[C@H](CC(C)C)NC(=O)[C@H](CC(N)=O)NC(=O)[C@@H]4CCCN4C(=O)[C@H](CCCNC(=N)N)NC(=O)[C@H](CSSC[C@H](NC(=O)[C@@H](N)CC(=O)O)C(=O)N[C@@H](CC(C)C)C(=O)NCC(=O)N[C@@H](Cc4ccccc4)C(=O)N[C@@H](CCSC)C(=O)N[C@@H](CCCNC(=N)N)C(=O)N[C@@H](CCCCN)C(=O)N2)NC(=O)[C@H](CSSC[C@@H](C(=O)N[C@@H](CCCCN)C(=O)N[C@@H](Cc2ccc(O)cc2)C(=O)N[C@H](C(=O)N[C@@H](Cc2ccc(C(=O)O)cc2)C(N)=O)C(C)C)NC(=O)[C@H](Cc2c[nH]c4ccccc24)NC(=O)[C@H](CCCCN)NC(=O)[C@H](Cc2c[nH]cn2)NC(=O)[C@H]([C@@H](C)O)NC(=O)[C@H](CCCNC(=N)N)NC(=O)[C@H](CO)NC3=O)NC(=O)[C@H](CCCCN)NC(=O)[C@H](CC(=O)O)NC(=O)[C@H](CC(N)=O)NC(=O)[C@H](CC(=O)O)NC(=O)[C@@H]2CCCN2C1=O [compound 410],IC50,"hNav1.3; use-dependent, […]",6310 nM
same,IC50,"hNav1.7; use-dependent, […]",9190 nM
same,IC50,"hNav1.5; use-dependent, […]",7110 nM
"CC[C@H](C)[C@@H]1NC(=O)[C@@H]2CSSC[C@@H]3NC(=O)[C@H](C(C)C)NC(=O)[C@H](CC(C)C)NC(=O)[C@H](CC(N)=O)NC(=O)[C@@H]4CCCN4C(=O)[C@H](CCCNC(=N)N)NC(=O)[C@H](CSSC[C@H](NC(=O)[C@@H](N)CC(=O)O)C(=O)N[C@@H](CC(C)C)C(=O)NCC(=O)NC(C)(C)C(=O)N[C@@H](Cc4ccccc4)C(=O)N[C@@H](CCCNC(=N)N)C(=O)N[C@@H](CCCCN)C(=O)N2)NC(=O)[C@H](CSSC[C@@H](C(=O)N[C@@H](CCCCN)C(=O)N[C@@H](Cc2ccc(O)cc2)C(=O)N[C@H](C(=O)N[C@@H](Cc2ccccc2)C(N)=O)C(C)C)NC(=O)[C@H](Cc2c[nH]c4ccccc24)NC(=O)[C@H](CCCCN)NC(=O)[C@H](Cc2c[nH]cn2)NC(=O)[C@H]([C@@H](C)O)NC(=O)[C@H](CCCNC(=N)N)NC(=O)[C@H](CO)NC3=O)NC(=O)[C@H](CCCCN)NC(=O)[C@H](CC(=O)O)NC(=O)[C@H](CC(N)=O)NC(=O)[C@H](CC(=O)O)NC(=O)[C@@H]2CCCN2C1=O [compound 604] (H-DCLG[Aib]FRKCIPDNDKCCRPNLVCSRTHKWCKYVF-NH2; disulfide 2-17, 9-23, 16-30)",IC50,"hNav1.3; use-dependent block, hNav1.3",610 nM
same,IC50,"hNav1.7; use-dependent block, hNav1.7",440 nM
same,IC50,"hNav1.5; use-dependent block, hNav1.5",6400 nM
"CC[C@H](C)[C@@H]1NC(=O)[C@@H]2CSSC[C@@H]3NC(=O)[C@H](C(C)C)NC(=O)[C@H](CC(C)C)NC(=O)[C@H](CC(N)=O)NC(=O)[C@@H]4CCCN4C(=O)[C@H](CCCNC(=N)N)NC(=O)[C@H](CSSC[C@H](NC(=O)[C@@H](N)CC(=O)O)C(=O)N[C@@H](CC(C)C)C(=O)N[C@@H](CCCNC(=N)N)C(=O)N[C@@H](CCSC)C(=O)N[C@@H](CCSC)C(=O)N[C@@H](CCCNC(=N)N)C(=O)N[C@@H](CCCCN)C(=O)N2)NC(=O)[C@H](CSSC[C@@H](C(=O)N[C@@H](CCCCN)C(=O)N[C@@H](Cc2ccc(O)cc2)C(=O)N[C@H](C(=O)N[C@@H](Cc2ccccc2)C(N)=O)C(C)C)NC(=O)[C@H](Cc2c[nH]c4ccccc24)NC(=O)[C@H](CCCCN)NC(=O)[C@H](Cc2c[nH]cn2)NC(=O)[C@H]([C@@H](C)O)NC(=O)[C@H](CCCNC(=N)N)NC(=O)[C@H](CO)NC3=O)NC(=O)[C@H](CCCCN)NC(=O)[C@H](CC(=O)O)NC(=O)[C@H](CC(N)=O)NC(=O)[C@H](CC(=O)O)NC(=O)[C@@H]2CCCN2C1=O [compound 694] (H-DCLRMMRKCIPDNDKCCRPNLVCSRTHKWCKYVF-NH2; disulfide 2-17, 9-23, 16-30)",IC50,hNav1.3; [1],290 nM
same,IC50,hNav1.7; [2],80 nM
same,IC50,hNav1.5; [3],> 5000 nM
"CC[C@H](C)[C@@H]1NC(=O)[C@@H]2CSSC[C@@H]3NC(=O)[C@H](C(C)C)NC(=O)[C@H](CC(C)C)NC(=O)[C@H](CC(N)=O)NC(=O)[C@@H]4CCCN4C(=O)[C@H](CCCNC(=N)N)NC(=O)[C@H](CSSC[C@H](NC(=O)[C@@H](N)CC(=O)O)C(=O)N[C@@H](CC(C)C)C(=O)NCC(=O)N[C@@H](Cc4ccccc4)C(=O)N[C@@H](CCSC)C(=O)N[C@@H](CCCNC(=N)N)C(=O)N[C@@H](CCCCN)C(=O)N2)NC(=O)[C@H](CSSC[C@@H](C(=O)N[C@@H](CCCCN)C(=O)N[C@@H](Cc2ccc(O)cc2)C(=O)N[C@H](C(=O)N[C@@H](Cc2ccccc2)C(N)=O)C(C)C)NC(=O)[C@H](Cc2c[nH]c4ccccc24)NC(=O)[C@H](CCCCN)NC(=O)[C@H](Cc2cnc[nH]2)NC(=O)[C@H]([C@@H](C)O)NC(=O)[C@H](CCCNC(=N)N)NC(=O)[C@H](CO)NC3=O)NC(=O)[C@H](CCCCN)NC(=O)[C@H](CC(=O)O)NC(=O)[C@H](CCCNC(=N)N)NC(=O)[C@H](CC(=O)O)NC(=O)[C@@H]2CCCN2C1=O [compound 103] (H-DCLGFMRKCIPDRDKCCRPNLVCSRTHKWCKYVF-NH2; disulfide 2-17, 9-23, 16-30)",IC50,hNav1.3; Use,220 nM
same,IC50,hNav1.7; Use,160 nM
same,IC50,hNav1.5; Use,16000 nM
"CC[C@H](C)[C@@H]1NC(=O)[C@@H]2CSSC[C@@H]3NC(=O)[C@H](C(C)C)NC(=O)[C@H](CC(C)C)NC(=O)[C@H](CC(N)=O)NC(=O)[C@@H]4CCCN4C(=O)[C@H](CCCNC(=N)N)NC(=O)[C@H](CSSC[C@H](NC(=O)[C@@H](N)CC(=O)O)C(=O)N[C@@H](CC(C)C)C(=O)NCC(=O)N[C@@H](Cc4ccccc4)C(=O)N[C@@H](CCSC)C(=O)N[C@@H](CCCNC(=N)N)C(=O)N[C@@H](CCCCN)C(=O)N2)NC(=O)[C@H](CSSC[C@@H](C(=O)N[C@@H](CCCCN)C(=O)N[C@@H](Cc2ccc(O)cc2)C(=O)N[C@H](C(=O)N[C@@H](Cc2ccccc2)C(N)=O)C(C)C)NC(=O)[C@H](Cc2c[nH]c4ccccc24)NC(=O)[C@H](CCCCN)NC(=O)[C@H](Cc2c[nH]cn2)NC(=O)[C@H]([C@@H](C)O)NC(=O)[C@H](CCCNC(=N)N)NC(=O)[C@H](CO)NC3=O)NC(=O)[C@H](CCCCN)NC(=O)[C@H](CC(=O)O)NC(=O)[C@H](CC(N)=O)NC(=O)[C@H](Cc2ccc(O)cc2)NC(=O)[C@@H]2CCCN2C1=O [compound 197] (H-DCLGFMRKCIPYNDKCCRPNLVCSRTHKWCKYVF-NH2; disulfide 2-17, 9-23, 16-30)",IC50,hNav1.3; Use,42 nM
same,IC50,hNav1.7; Use,98 nM
same,IC50,hNav1.5; Use,6920 nM
"CC[C@H](C)[C@@H]1NC(=O)[C@@H]2CSSC[C@@H]3NC(=O)[C@H](C(C)C)NC(=O)[C@H](CC(C)C)NC(=O)[C@H](CC(N)=O)NC(=O)[C@@H]4CCCN4C(=O)[C@H](CCCNC(=N)N)NC(=O)[C@H](CSSC[C@H](NC(=O)[C@@H](N)CC(=O)O)C(=O)N[C@@H](CC(C)C)C(=O)N[C@@H](Cc4c[nH]c5ccccc45)C(=O)N[C@@H](C)C(=O)N[C@@H](CCSC)C(=O)N[C@@H](CCCNC(=N)N)C(=O)N[C@@H](CCCCN)C(=O)N2)NC(=O)[C@H](CSSC[C@@H](C(=O)N[C@@H](CCCCN)C(=O)N[C@@H](Cc2ccc(O)cc2)C(=O)N[C@H](C(=O)N[C@@H](Cc2ccccc2)C(N)=O)C(C)C)NC(=O)[C@H](Cc2c[nH]c4ccccc24)NC(=O)[C@H](CCCCN)NC(=O)[C@H](Cc2c[nH]cn2)NC(=O)[C@H]([C@@H](C)O)NC(=O)[C@H](CCCNC(=N)N)NC(=O)[C@H](CO)NC3=O)NC(=O)[C@H](CCCCN)NC(=O)[C@H](CC(=O)O)NC(=O)[C@H](CC(N)=O)NC(=O)[C@H](CC(=O)O)NC(=O)[C@@H]2CCCN2C1=O [compound 424] (H-DCLWAMRKCIPDNDKCCRPNLVCSRTHKWCKYVF-NH2; disulfide 2-17, 9-23, 16-30)",IC50,"hNav1.3; use-dependent block, hNav1.3",1170 nM
same,IC50,"hNav1.7; use-dependent block, hNav1.7",490 nM
same,IC50,"hNav1.5; use-dependent block, hNav1.5",> 5000 nM
